Patent publication US20170000889A1, “STABLE BROMFENAC OPHTHALMIC SOLUTION” (SENTISS PHARMA PRIVATE LIMITED, priority 2013, published 2017)

Experiment: Haziness of citrate-buffered bromfenac formulation on addition of BKC, effect of surfactants
Format: physicochemical
Details: for Degradation of the bromfenac solution with the surfactant: compared among different surfactants; for Haziness after addition of BKC to the citrate formulation: surfactant added to citrate-buffered bromfenac solution with benzalkonium chloride
Experimental: In yet other embodiment of the present invention, citrate buffer is used instead of borate buffer but when benzalkonium chloride (BKC) was added in the citrate formulation it causes haziness of the formulation.
The inventors of the present invention extensively studied how to overcome the haziness occurred during the addition of BKC.

Row | Substance | Degradation of the bromfenac solution with the surfactant | Haziness after addition of BKC to the citrate formulation
1 | polyoxyl-15-hydroxystearate | least amount of degradation | remove the haziness
2 | polysorbate 80 | least amount of degradation | remove the haziness
